The structures appear in SMILES notation.

The record followed here is patent US9382228B2 (priority 2013, dated 2016).

Test [1] deals with osteoclast precursors. Nature of the test: cells. Conditions: read-out: Osteoclast assay. It is filed as cell-based. Here is the method: Osteoclast Tartrate-Resistant Acid Phosphatase Assay
Diluted compound was transferred to a 384-well black clear bottom plate. Two-thousand five hundred osteoclast precursors (Lonza, Walkersville, Md.) were added per well in growth media containing Receptor Activator of Nuclear Factor Kappa-beta ligand (RANKL) and M-CSF (R&D Systems, Minneapolis, Minn.). […] Tartrate-resistant acid phosphatase activity in the supernatant samples was determined using an acid phosphatase assay kit (Sigma, St. Louis, Mo.). Absorbance was measured at 550 nm using a plate reader. Data was analyzed using Prism software (Graphpad, San Diego, Calif.) to calculate IC50 values.

Test [2] relates to M-NFS-60 cells. Nature of the test: cells. Conditions: 67 h, read-out: M-NFS-60 cell proliferation.
Description: M-NFS-6 Cell Proliferation Assay
A serial dilution of test compound was dispensed into a 384-well black clear bottom plate (Corning, Corning, N.Y.). Two thousand five hundred cells were added per well in 50 μL complete growth medium. […] IC50 values were calculated from a series of percent inhibition values determined at a range of inhibitor concentrations using software routines as implemented in the GraphPad Prism software package.
The target of test [3] is T1, unphosphorylated c-FMS kinase (uFMS, Seq. ID no. 1) (Homo sapiens, UniProt P07333).
T1 sequence (P07333 538-972): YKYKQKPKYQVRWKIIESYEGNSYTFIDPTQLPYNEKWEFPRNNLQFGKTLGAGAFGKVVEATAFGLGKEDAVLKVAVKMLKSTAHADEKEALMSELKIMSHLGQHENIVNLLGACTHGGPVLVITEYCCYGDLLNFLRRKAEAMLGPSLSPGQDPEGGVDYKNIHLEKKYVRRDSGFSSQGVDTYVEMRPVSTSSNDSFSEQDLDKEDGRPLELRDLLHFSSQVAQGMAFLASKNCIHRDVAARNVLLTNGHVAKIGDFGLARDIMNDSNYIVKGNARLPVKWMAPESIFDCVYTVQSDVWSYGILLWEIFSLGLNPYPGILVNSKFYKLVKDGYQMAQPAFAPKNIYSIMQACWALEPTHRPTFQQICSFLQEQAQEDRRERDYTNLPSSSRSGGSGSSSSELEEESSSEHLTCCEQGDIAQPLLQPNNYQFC
Description: biochemical. The following applies: uFMS, enzymatic assay, ATP 500 μM.

The target of test [4] is unphosphorylated c-KIT kinase (uKIT, Seq. ID no. 2) (Homo sapiens, UniProt P10721). Nature of the test: biochemical. Conditions: uKIT, enzymatic assay, ATP 2000 μM.
Description: uKit kinase (Seq. ID No. 2) Assay
In this assay, the oxidation of NADH (thus the decrease at A340 nm) was continuously monitored spectrophometrically. […] The inhibition reaction was started by mixing serial diluted test compound with the above reaction mixture. The absorption at 340 nm was monitored continuously for 4 hours at 30° C. on Synergy 2 plate reader (BioTech).
Test [5] deals with unphosphorylated PDGFRβ kinase (uPDGFRβ, Seq. ID No. 3) (Homo sapiens, UniProt P09619). Description: biochemical. Conditions: uPDGFRb, enzymatic assay, ATP 500 μM.
unphosphorylated PDGFRβ kinase (uPDGFRβ, Seq. ID No. 3), sequence (P09619 557-1106): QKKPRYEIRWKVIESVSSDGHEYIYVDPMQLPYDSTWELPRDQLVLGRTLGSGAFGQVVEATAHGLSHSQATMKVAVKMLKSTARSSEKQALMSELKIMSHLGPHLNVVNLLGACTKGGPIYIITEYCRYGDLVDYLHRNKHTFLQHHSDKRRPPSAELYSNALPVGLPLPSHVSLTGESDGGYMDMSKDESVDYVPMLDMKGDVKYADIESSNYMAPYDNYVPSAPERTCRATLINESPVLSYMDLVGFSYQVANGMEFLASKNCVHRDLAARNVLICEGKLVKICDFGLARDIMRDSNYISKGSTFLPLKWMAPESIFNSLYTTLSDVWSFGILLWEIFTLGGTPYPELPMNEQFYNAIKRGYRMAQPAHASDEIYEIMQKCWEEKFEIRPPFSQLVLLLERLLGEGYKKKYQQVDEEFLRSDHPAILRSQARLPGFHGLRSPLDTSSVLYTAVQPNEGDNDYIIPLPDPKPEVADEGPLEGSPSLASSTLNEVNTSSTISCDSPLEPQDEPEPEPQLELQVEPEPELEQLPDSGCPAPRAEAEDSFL

unphosphorylated c-KIT kinase (uKIT, Seq. ID no. 2), sequence (P10721 with tags, fused parts or gaps): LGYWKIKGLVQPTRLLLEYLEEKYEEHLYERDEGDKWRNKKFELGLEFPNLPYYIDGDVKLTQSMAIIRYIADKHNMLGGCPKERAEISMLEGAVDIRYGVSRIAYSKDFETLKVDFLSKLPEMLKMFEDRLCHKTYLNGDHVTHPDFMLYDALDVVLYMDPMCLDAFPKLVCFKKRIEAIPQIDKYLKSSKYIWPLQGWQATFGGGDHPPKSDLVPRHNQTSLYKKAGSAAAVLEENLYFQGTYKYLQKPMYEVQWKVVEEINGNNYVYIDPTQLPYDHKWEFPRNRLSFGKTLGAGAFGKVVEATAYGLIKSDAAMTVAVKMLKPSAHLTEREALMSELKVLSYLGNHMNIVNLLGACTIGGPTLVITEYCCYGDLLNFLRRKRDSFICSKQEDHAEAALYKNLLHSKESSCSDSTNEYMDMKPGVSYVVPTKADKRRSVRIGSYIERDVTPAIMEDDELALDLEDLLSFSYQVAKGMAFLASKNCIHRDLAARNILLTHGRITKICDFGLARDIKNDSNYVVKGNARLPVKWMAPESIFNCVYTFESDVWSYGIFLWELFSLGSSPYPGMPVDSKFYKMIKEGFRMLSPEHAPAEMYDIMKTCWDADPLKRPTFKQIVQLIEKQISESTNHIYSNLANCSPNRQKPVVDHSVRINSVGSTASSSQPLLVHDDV

Regarding `Cn1cc(-c2cc(Oc3ccc(NC(=O)NC(=O)C4(C(F)(F)F)CCC4)nc3)ccn2)cn1` [Example 101, N-((5-((2-(1-methyl-1H-pyrazol-4-yl)pyridin-4-yl)oxy)pyridin-2-yl)carbamoyl)-1-(trifluoromethyl)cyclobutanecarboxamide], the IC50 in test [1] was 10 to 100 nM; in test [2], less than 10 nM; in test [3], less than 10 nM; in test [4], 100 to 1000 nM; in test [5], less than 10 nM.
Consider `Cc1nc(NC(=O)NC(=O)C2(C(F)(F)F)CCC2)ccc1Oc1ccnc(-c2cnn(C)c2)c1` [Example 102, N-((6-methyl-5-((2-(1-methyl-1H-pyrazol-4-yl)pyridin-4-yl)oxy)pyridin-2-yl)carbamoyl)-1-(trifluoromethyl)cyclobutanecarboxamide], for which the IC50 in test [1] was 10 to 100 nM; in test [2], less than 10 nM; in test [3], less than 10 nM; in test [4], 100 to 1000 nM; in test [5], 100 to 1000 nM.
In the case of `CNc1ccc(-c2cc(Oc3ccc(NC(=O)NC(=O)C(C)(C)C)nc3)ccn2)cn1` [Example 105, N-((5-((6′-(methylamino)-[2,3′-bipyridin]-4-yl)oxy)pyridin-2-yl)carbamoyl)pivalamide], the IC50 is less than 10 nM in test [1]; 10 to 100 nM in test [2]; less than 10 nM in test [3]; 100 to 1000 nM in test [4]; 100 to 1000 nM in test [5].
As to `CC(C)(C)C(=O)NC(=O)Nc1ccc(Oc2ccnc(-c3ccc(N)nc3)c2)cn1` [Example 106, N-((5-((6′-amino-[2,3′-bipyridin]-4-yl)oxy)pyridin-2-yl)carbamoyl)pivalamide], the IC50 in test [1] was less than 10 nM; in test [2], less than 10 nM; in test [3], less than 10 nM; in test [4], 100 to 1000 nM; in test [5], greater than 1000 nM.
As to `CCC(=O)NC(=O)Nc1ccc(Oc2ccnc(-c3ccc(C)nc3)c2)cn1` [Example 108, N-((5-((6′-methyl-[2,3′-bipyridin]-4-yl)oxy)pyridin-2-yl)carbamoyl)propionamide], the IC50 in test [1] is 10 to 100 nM; in test [2], greater than 1000 nM; in test [3], 10 to 100 nM; in test [4], greater than 1000 nM; in test [5], greater than 1000 nM.
Turning to `Cc1nc(NC(=O)NC(=O)C(C)(C)C)ccc1Oc1ccnc(-c2ccc(C3CCN(C)CC3)cc2)c1` [Example 109, N-((6-methyl-5-((2-(4-(1-methylpiperidin-4-yl)phenyl)pyridin-4-yl)oxy)pyridin-2-yl)carbamoyl)pivalamide], the IC50 is 10 to 100 nM in test [1]; less than 10 nM in test [2]; less than 10 nM in test [3]; 100 to 1000 nM in test [4]; 100 to 1000 nM in test [5].
On to `COC(C)(C)C(=O)NC(=O)Nc1ccc(Oc2ccnc(-c3ccc(C#N)nc3)c2)c(C)n1` [Example 110, N-((5-((6′-cyano-[2,3′-bipyridin]-4-yl)oxy)-6-methylpyridin-2-yl)carbamoyl)-2-methoxy-2-methylpropanamide], for which the IC50 is 10 to 100 nM in test [1]; 100 to 1000 nM in test [2]; 10 to 100 nM in test [3]; greater than 1000 nM in test [4]; greater than 1000 nM in test [5].
`Cc1cc(NC(=O)NC(=O)C(C)(C)C)nc(C)c1Oc1ccnc(-c2cnn(C)c2)c1` [Example 116, N-((4,6-dimethyl-5-((2-(1-methyl-1H-pyrazol-4-yl)pyridin-4-yl)oxy)pyridin-2-yl)carbamoyl)pivalamide]: the IC50 in test [1] was 10 to 100 nM; in test [2], 10 to 100 nM; in test [3] it was less than 10 nM; in test [4] it was 10 to 100 nM; in test [5], 10 to 100 nM.
Turning to `Cc1cc(NC(=O)NC(=O)C2CCOCC2)nc(C)c1Oc1ccnc(-c2cnn(C)c2)c1` [Example 117, N-((4,6-dimethyl-5-((2-(1-methyl-1H-pyrazol-4-yl)pyridin-4-yl)oxy)pyridin-2-yl)carbamoyl)tetrahydro-2H-pyran-4-carboxamide], the IC50 is 10 to 100 nM in test [1]; 10 to 100 nM in test [2]; less than 10 nM in test [3]; 10 to 100 nM in test [4]; 100 to 1000 nM in test [5].
As for `Cc1nc(NC(=O)NC(=O)C(C)(C)C)ccc1Oc1ccnc(-c2ccc(N3CCN(C)CC3)cc2)c1` [Example 118, N-((6-methyl-5-((2-(4-(4-methylpiperazin-1-yl)phenyl)pyridin-4-yl)oxy)pyridin-2-yl)carbamoyl)pivalamide], the IC50 in test [1] is 10 to 100 nM; in test [2] it was 10 to 100 nM; in test [3] it was less than 10 nM; in test [4], 10 to 100 nM; in test [5], 100 to 1000 nM.
As for `Cc1cn(-c2cc(Oc3ccc(NC(=O)NC(=O)C(C)C)nc3C)ccn2)cn1` [Example 134, N-((6-methyl-5-((2-(4-methyl-1H-imidazol-1-yl)pyridin-4-yl)oxy)pyridin-2-yl)carbamoyl)isobutyramide], the IC50 in test [1] is 10 to 100 nM; in test [2], 100 to 1000 nM; in test [3], 10 to 100 nM; in test [4] it was greater than 1000 nM; in test [5] it was greater than 1000 nM.
`Cc1cn(-c2cc(Oc3ccc(NC(=O)NC(=O)C4CCOC4)nc3C)ccn2)cn1` (centres unmarked) [Example 136, N-((6-methyl-5-((2-(4-methyl-1H-imidazol-1-yl)pyridin-4-yl)oxy)pyridin-2-yl)carbamoyl)tetrahydrofuran-3-carboxamide]: the IC50 is 100 to 1000 nM in test [1]; 100 to 1000 nM in test [2]; 100 to 1000 nM in test [3]; greater than 1000 nM in test [4]; greater than 1000 nM in test [5].
Turning to `CCC(=O)NC(=O)Nc1ccc(Oc2ccnc(-c3cn(C)cn3)c2)cn1` [Example 138, N-((5-((2-(1-methyl-1H-imidazol-4-yl)pyridin-4-yl)oxy)pyridin-2-yl)carbamoyl)propionamide], the IC50 in test [1] is 10 to 100 nM; in test [2] it was 100 to 1000 nM; in test [3], 100 to 1000 nM; in test [4] it was greater than 1000 nM; in test [5], greater than 1000 nM.
For `COC(C)(C)C(=O)NC(=O)Nc1ccc(Oc2ccnc(-c3cnc(C)n3C)c2)cn1` [Example 139, N-((5-((2-(1,2-dimethyl-1H-imidazol-5-yl)pyridin-4-yl)oxy)pyridin-2-yl)carbamoyl)-2-methoxy-2-methylpropanamide], the IC50 was 10 to 100 nM in test [1]; 100 to 1000 nM in test [2]; 100 to 1000 nM in test [3]; greater than 1000 nM in test [4]; greater than 1000 nM in test [5].
Consider `CCc1nc(NC(=O)NC(=O)C2(OC)CC2)ccc1Oc1ccnc(-c2cnn(C)c2)c1` [Example 141, N-((6-ethyl-5-((2-(1-methyl-1H-pyrazol-4-yl)pyridin-4-yl)oxy)pyridin-2-yl)carbamoyl)-1-methoxycyclopropanecarboxamide], for which the IC50 was 10 to 100 nM in test [1]; 100 to 1000 nM in test [2]; 10 to 100 nM in test [3]; greater than 1000 nM in test [4]; greater than 1000 nM in test [5].
Regarding `Cc1cn(-c2cc(Oc3cnc(NC(=O)NC(=O)C(C)(C)C)cc3C)ccn2)cn1` [Example 148, N-((4-methyl-5-((2-(4-methyl-1H-imidazol-1-yl)pyridin-4-yl)oxy)pyridin-2-yl)carbamoyl)pivalamide], the IC50 in test [1] is 10 to 100 nM; in test [2] it was less than 10 nM; in test [3], less than 10 nM; in test [4], 10 to 100 nM; in test [5] it was greater than 1000 nM.
As for `COC1(C(=O)NC(=O)Nc2ccc(Oc3ccnc(-c4cnc(C)s4)c3)cn2)CCCC1` [Example 149, 1-methoxy-N-((5-((2-(2-methylthiazol-5-yl)pyridin-4-yl)oxy)pyridin-2-yl)carbamoyl)cyclopentanecarboxamide], the IC50 is 10 to 100 nM in test [1]; 10 to 100 nM in test [2]; less than 10 nM in test [3]; 100 to 1000 nM in test [4]; 100 to 1000 nM in test [5].
Turning to `COC1(C(=O)NC(=O)Nc2ccc(Oc3ccnc(-c4cnc(C)s4)c3)cn2)CC1` [Example 155, 1-methoxy-N-((5-((2-(2-methylthiazol-5-yl)pyridin-4-yl)oxy)pyridin-2-yl)carbamoyl)cyclopropanecarboxamide], the IC50 was 10 to 100 nM in test [1]; 10 to 100 nM in test [2]; less than 10 nM in test [3]; 100 to 1000 nM in test [4]; greater than 1000 nM in test [5].
Consider `Cc1ncc(-c2cc(Oc3ccc(NC(=O)NC(=O)C4CCOCC4)nc3)ccn2)s1` [Example 156, N-((5-((2-(2-methylthiazol-5-yl)pyridin-4-yl)oxy)pyridin-2-yl)carbamoyl)tetrahydro-2H-pyran-4-carboxamide], for which the IC50 is 10 to 100 nM in test [1]; 100 to 1000 nM in test [2]; 10 to 100 nM in test [3]; 100 to 1000 nM in test [4]; greater than 1000 nM in test [5].
